Legend:
Type in all cases: cell-based
[1] = tested on: KMRC3; assay: Cancer cell line proliferation assay (CellTiter-Glo), KMRC3; details: 144 h, Kidney, LATS1 HOM DEL, 6 days
Method: (§1) All the cell lines are cultured in the media supplemented with 10-20% fetal bovine serum, in the temperature of 37° C., 5% CO2 and 95% humidity. The indicated cell lines (all sourced from the ATCC cell culture collection) are plated in 96-Well Flat Clear Bottom Black Polystyrene TC-Treated Microplates with the final cell density of 4×10^3 cells/well. Cells are incubated overnight and then compounds, dissolved in DMSO, are added in dose-response. Cells are incubated with compound dilutions for another 6 days. Cell viability is quantitated using CellTiter-Glo reagent (Perkin Elmer) and measured using an EnVision Multi Label Reader.

[2] = tested on: YAP/TAZ-TEAD transcription; assay: Reporter gene assay for measuring the inhibition of YAP/TAZ-TEAD transcription (TEAD-responsive element luciferase reporter in Hek293T cells); details: Homo sapiens, HEK-293T, 24 h, Hek293T cells transiently transfected with TEAD-responsive element luciferase reporter; 24 hours incubation
Method in brief: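 Readout is SteadyLite luciferase luminescence from a TEAD-responsive element reporter transiently transfected into Hek293T cells, exposed to compounds for 24 h at 37 °C/5% CO2. IC50 derived from percent inhibition, scaled between vehicle basal activity (0%) and positive control inhibitor (100%).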

[3] = tested on: Calu-1; assay: Cancer cell line proliferation assay (CellTiter-Glo), Calu-1; details: Homo sapiens, 144 h, Lung (squamous), NF2 HOM DEL/LATS2 HOM DEL, 6 days
Method: as §1

[4] = tested on: NCI-H226; assay: Cancer cell line proliferation assay (CellTiter-Glo), NCI-H226; details: Homo sapiens, 144 h, Lung (mesothelioma), NF2 HOM DEL/LATS1 HOM DEL, 6 days
Method: as §1

## C=CC(=O)NC1Cc2ccccc2N(c2ccc(C(F)(F)F)cc2)C1 (stereo not shown) [compound 001, N-(1-(4-(trifluoromethyl)phenyl)-1,2,3,4-tetrahydroquinolin-3-yl)acrylamide]
[1]
  GI50: 20 nM
[2]
  IC50: < 1000 nM
[3]
  GI50: 120 nM
[4]
  GI50: 40 nM

Reference: patent publication US20240025856A1, “1,2,3,4-TETRAHYDROQUINOLINE DERIVATIVES AS INHIBITORS OF THE YAP/TAZ-TEAD ACTIVATION FOR TREATING CANCER” (KATHOLIEKE UNIVERSITEIT LEUVEN, priority 2020, published 2024)
